According to publication PMC8524670 (Pharmacology Research & Perspectives, 2021):
Structures can show the parent of a compound that is named as a salt.

Experiments:
CYP2B6 = test: CYP induction in human hepatocytes; assay type: in vitro ADME; conditions: human, cryopreserved human hepatocytes
CYP1A2 = test: in vitro; conditions: human, positive control omeprazole 50 µM
human BCRP [1] = target: T1, human BCRP (Homo sapiens, UniProt Q9UNQ0); test: BCRP transportation in inside-out vesicles; assay type: in vitro ADME; conditions: BCRP vesicles, LFY 10 μM probe substrate
T1 sequence (Q9UNQ0 1-655): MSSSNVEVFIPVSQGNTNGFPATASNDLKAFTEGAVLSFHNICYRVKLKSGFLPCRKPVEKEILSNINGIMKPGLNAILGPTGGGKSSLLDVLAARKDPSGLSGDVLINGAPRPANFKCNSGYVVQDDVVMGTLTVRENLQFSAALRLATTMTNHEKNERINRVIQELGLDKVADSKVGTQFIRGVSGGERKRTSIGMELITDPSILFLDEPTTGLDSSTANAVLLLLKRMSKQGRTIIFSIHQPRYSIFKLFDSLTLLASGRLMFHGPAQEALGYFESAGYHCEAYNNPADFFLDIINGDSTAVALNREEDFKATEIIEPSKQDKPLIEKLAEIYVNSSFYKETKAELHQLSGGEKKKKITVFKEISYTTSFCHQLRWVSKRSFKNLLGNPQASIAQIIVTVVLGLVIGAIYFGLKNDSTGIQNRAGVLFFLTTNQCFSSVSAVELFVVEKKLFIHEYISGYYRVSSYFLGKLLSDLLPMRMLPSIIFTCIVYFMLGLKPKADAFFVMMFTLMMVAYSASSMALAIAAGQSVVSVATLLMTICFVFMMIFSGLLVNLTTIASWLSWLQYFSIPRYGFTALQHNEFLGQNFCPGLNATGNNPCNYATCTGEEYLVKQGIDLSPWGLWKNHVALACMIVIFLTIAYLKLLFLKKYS

human BCRP [2] = target: T1, human BCRP; test: BCRP inhibition in vesicles; assay type: in vitro ADME; conditions: BCRP inhibition assay, buffer vehicle
OCT2 [3] = target: T2, OCT2 (Homo sapiens, UniProt O15244); test: SLC transportation assay in HEK293 cells; assay type: in vitro ADME; conditions: control substrate, 50 µM
T2 sequence (O15244 1-555): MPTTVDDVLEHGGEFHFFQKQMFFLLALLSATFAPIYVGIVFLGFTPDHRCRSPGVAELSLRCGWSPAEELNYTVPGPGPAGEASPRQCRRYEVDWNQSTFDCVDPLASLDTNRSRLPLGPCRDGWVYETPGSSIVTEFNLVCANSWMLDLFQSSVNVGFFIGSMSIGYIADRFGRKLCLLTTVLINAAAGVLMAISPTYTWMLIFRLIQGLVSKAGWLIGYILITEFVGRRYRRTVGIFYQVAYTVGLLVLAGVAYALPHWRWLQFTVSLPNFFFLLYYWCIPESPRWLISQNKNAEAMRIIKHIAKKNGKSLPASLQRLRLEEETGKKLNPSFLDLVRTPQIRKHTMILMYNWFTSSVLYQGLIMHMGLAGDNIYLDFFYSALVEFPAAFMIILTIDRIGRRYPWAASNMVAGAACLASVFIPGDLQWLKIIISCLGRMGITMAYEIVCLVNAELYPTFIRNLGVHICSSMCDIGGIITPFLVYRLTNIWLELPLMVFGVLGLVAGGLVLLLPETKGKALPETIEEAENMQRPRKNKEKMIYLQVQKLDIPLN

P-gp [4] = target: T3, P-gp (Homo sapiens, UniProt P08183); test: P-gp inhibition in Caco-2 cells; assay type: in vitro ADME; conditions: human, Caco-2, probe digoxin
OAT3 [5] = target: T4, OAT3 (Homo sapiens, UniProt Q8TCC7); test: SLC transportation assay in HEK293 cells; assay type: in vitro ADME; conditions: control substrate, 20 µM
T4 sequence (Q8TCC7 1-542): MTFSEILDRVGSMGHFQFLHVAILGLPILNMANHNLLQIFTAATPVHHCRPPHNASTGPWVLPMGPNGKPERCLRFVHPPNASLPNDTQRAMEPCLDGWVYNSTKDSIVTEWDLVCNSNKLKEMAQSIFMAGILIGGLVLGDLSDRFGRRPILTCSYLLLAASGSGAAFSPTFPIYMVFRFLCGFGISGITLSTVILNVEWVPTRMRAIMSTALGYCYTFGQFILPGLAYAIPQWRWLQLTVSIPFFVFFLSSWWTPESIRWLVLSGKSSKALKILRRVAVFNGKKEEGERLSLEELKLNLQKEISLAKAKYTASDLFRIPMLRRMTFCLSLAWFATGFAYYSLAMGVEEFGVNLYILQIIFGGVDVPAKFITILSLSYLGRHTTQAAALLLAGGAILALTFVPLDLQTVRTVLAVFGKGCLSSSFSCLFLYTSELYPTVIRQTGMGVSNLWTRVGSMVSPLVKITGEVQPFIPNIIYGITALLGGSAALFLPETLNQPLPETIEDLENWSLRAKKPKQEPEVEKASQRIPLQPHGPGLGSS

OATP1B1 = target: T5, OATP1B1 (Homo sapiens, UniProt Q9Y6L6); test: SLC transportation assay in HEK293 cells; assay type: in vitro ADME; conditions: control substrate, 20 µM
T5 sequence (Q9Y6L6 1-691): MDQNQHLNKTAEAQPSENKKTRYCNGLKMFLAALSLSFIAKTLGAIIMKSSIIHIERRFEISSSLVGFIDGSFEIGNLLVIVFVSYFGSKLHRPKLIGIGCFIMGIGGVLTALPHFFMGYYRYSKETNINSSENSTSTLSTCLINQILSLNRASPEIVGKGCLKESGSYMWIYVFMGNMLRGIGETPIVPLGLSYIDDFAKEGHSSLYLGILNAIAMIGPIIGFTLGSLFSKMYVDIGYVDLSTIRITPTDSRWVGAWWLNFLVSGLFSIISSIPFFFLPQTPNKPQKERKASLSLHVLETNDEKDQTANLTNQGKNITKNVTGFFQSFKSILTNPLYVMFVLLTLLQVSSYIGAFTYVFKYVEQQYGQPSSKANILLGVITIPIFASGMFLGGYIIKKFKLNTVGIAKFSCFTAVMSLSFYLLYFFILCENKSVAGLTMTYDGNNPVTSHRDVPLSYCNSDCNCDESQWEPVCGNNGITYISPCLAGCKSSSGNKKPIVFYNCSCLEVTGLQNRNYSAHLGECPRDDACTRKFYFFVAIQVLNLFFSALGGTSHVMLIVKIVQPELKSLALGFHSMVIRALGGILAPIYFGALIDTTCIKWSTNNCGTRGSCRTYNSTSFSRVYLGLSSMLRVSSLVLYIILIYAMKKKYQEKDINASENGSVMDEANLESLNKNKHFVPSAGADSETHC

OATP1B3 = target: T6, OATP1B3 (Homo sapiens, UniProt Q9NPD5); test: SLC transportation assay in HEK293 cells; assay type: in vitro ADME; conditions: control substrate, 20 µM
T6 sequence (Q9NPD5 1-702): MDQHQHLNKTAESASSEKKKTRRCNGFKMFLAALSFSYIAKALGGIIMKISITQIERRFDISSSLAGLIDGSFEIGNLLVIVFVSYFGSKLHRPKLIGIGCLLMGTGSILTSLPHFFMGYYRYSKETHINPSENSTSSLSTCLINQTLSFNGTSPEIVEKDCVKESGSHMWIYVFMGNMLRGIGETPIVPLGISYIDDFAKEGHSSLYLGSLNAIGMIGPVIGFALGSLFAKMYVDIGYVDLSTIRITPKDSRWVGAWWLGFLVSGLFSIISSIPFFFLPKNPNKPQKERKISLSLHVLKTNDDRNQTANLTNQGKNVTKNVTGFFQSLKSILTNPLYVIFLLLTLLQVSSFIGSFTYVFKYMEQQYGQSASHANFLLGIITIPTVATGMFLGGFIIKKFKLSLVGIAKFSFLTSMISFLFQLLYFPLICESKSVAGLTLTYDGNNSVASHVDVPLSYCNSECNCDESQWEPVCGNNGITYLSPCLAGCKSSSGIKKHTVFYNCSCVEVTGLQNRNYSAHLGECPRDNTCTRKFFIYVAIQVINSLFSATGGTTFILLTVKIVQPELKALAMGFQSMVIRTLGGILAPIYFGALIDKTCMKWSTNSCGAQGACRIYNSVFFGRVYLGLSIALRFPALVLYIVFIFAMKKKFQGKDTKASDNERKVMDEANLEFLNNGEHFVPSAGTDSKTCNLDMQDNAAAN

OCT2 [6] = target: T2, OCT2; test: SLC inhibition assay in HEK293 cells; assay type: in vitro ADME; conditions: human, HEK293 cells overexpressing OCT2 (and MOCK cells), probe metformin
CYP3A = conditions: cited from earlier work
P-gp [7] = target: T3, P-gp; conditions: healthy subjects; cited from earlier work
OAT3 [8] = target: T4, OAT3; test: SLC inhibition assay in HEK293 cells; assay type: in vitro ADME; conditions: human, HEK293 cells overexpressing OAT3 (and MOCK cells), probe estrone sulfate

T3 sequence (P08183 whole entry): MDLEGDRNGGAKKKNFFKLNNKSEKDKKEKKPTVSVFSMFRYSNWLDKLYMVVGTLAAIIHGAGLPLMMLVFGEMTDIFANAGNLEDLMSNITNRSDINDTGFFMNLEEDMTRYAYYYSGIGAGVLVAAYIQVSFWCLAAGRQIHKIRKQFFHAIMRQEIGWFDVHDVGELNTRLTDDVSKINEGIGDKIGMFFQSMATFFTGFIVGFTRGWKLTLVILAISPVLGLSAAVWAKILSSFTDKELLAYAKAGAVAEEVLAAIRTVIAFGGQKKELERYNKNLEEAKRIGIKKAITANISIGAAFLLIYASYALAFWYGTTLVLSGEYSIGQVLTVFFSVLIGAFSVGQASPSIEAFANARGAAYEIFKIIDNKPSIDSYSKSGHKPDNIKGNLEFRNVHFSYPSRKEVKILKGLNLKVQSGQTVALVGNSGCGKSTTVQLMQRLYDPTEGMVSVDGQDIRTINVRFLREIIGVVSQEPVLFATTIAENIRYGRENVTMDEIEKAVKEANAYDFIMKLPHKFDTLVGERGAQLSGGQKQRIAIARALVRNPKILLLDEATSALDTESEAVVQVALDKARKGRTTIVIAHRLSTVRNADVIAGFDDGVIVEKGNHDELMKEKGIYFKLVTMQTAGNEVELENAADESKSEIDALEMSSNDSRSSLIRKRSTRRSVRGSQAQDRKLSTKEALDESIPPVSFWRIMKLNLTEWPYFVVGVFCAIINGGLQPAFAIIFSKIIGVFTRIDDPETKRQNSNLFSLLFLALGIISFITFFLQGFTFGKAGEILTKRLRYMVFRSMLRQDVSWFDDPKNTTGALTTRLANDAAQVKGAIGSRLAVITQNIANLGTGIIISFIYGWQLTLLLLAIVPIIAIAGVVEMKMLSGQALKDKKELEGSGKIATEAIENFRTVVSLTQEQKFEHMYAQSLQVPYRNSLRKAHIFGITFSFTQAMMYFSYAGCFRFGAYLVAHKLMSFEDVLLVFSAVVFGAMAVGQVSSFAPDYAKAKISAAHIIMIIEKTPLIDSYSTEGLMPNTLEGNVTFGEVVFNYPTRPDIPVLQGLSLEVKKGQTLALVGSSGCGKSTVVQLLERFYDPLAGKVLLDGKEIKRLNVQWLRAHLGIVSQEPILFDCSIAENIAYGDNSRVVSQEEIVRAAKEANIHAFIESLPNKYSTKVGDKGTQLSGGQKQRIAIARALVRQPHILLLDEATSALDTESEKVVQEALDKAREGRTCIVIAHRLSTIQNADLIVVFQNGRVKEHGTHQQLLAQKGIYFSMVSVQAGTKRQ

## CCC1(c2ccccc2)C(=O)NC(=O)NC1=O [phenobarbital, reference compound]
CYP2B6
  fold induction at 2 days, 1000 µM: 6.4 ± 3
CYP2B6; probe bupropion
  fold induction at 2 days, 1000 µM: 9.6 ± 5.4

## COc1ccc2[nH]c([S+]([O-])Cc3ncc(C)c(OC)c3C)nc2c1 (stereo not shown) [Omeprazole]
CYP1A2; Fold induction of activity
  fold induction at 2 days, 50 µM: 42 ± 6.4
CYP1A2; Fold induction of mRNA level
  fold induction at 2 days, 50 µM: 82 ± 94

## Lucifer Yellow [LFY, reference compound]
Human BCRP [1]
  Uptake ratio (ATP versus AMP): 17.4 ± 0.31 fold
Human BCRP [2]
  Uptake ratio of LFY: 14.9 fold

## CN(C)C(=N)N=C(N)N [Metformin, reference compound]
OCT2 [3]
  Uptake ratio: 3.49 ± 0.26

## C[C@H]1O[C@@H](O[C@H]2[C@@H](O)C[C@H](O[C@H]3[C@@H](O)C[C@H](O[C@H]4CC[C@@]5(C)[C@H](CC[C@@H]6[C@@H]5C[C@@H](O)[C@]5(C)[C@@H](C7=CC(=O)OC7)CC[C@]65O)C4)O[C@@H]3C)O[C@@H]2C)C[C@H](O)[C@@H]1O [Digoxin, reference compound]
P-gp [4]
  Papp B→A at 120 min, 10 µM: 15.4 ± 0.4 ×10⁻⁶ cm/s

## C[C@]12CC[C@@H]3c4ccc(OS(=O)(=O)O)cc4CC[C@H]3[C@@H]1CCC2=O [Estrone sulfate, reference compound]
OAT3 [5]
  Uptake ratio: 16.1 ± 0.45

## C[C@]12CC[C@@H]3c4ccc(O)cc4CC[C@H]3[C@@H]1CC[C@@H]2O[C@@H]1O[C@H](C(=O)O)[C@@H](O)[C@H](O)[C@H]1O [Estradiol‐17β‐glucuronide, reference compound]
OATP1B1
  Uptake ratio: 38.5 ± 5.5
OATP1B3
  Uptake ratio: 5.82 ± 0.62

## C=C[C@H]1C[N@@]2CC[C@H]1C[C@@H]2[C@@H](O)c1ccnc2ccc(OC)cc12 [Quinidine, reference compound]
OCT2 [6]
  activity at 500 µM: 31.5 ± 8%

## CC[C@H](Nc1ncnc2[nH]cnc12)c1nc2cccc(F)c2c(=O)n1-c1ccccc1 [idelalisib]
CYP3A
  Increase of exposure of midazolam: 5.15 fold

## CCOc1cc2ncc(C#N)c(Nc3ccc(OCc4ccccn4)c(Cl)c3)c2cc1NC(=O)/C=C/CN(C)C [neratinib]
P-gp [7]
  Increase of AUC of digoxin: 32%
  Increase of mean digoxin C max: 54%

## CCCN(CCC)S(=O)(=O)c1ccc(C(=O)O)cc1 [Probenecid, reference compound]
OAT3 [8]
  activity at 50 µM: 12.5 ± 8%
